In patent US9980943B2, “Methods of treating muscular dystrophy” (BOARD OF REGENTS OF THE NEVADA SYSTEM OF HIGHER EDUCATION, …, priority 2013, dated 2018):

Assays:
Type in all cases: cell-based, mouse
[1] = test system: β-galactosidase in CMV-LacZ C2C12 myotubes; experiment: CMV-LacZ secondary screen in C2C12 myotubes (β-Gal stabilizing assay); settings: for CMV-LACZ in Myotubes, signal relative to DMSO: C2C12 CMV-LacZ myotubes, fold relative to DMSO; for CMV-LACZ in Myotubes, value relative to DMSO: SU9516 analogs, C2C12 CMV-LacZ, N=2
Procedure, shortened: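 A secondary screen identifies compounds that stabilize β-gal independently of the native promoter, using CMV-LacZ C2C12 cells. Curves span 0.5–40 μM at six levels, in duplicate.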

[2] = test system: α7 integrin (LacZ reporter in α7+/LacZ myotubes); experiment: Myotube α7 integrin FDG assay (Burkin assay in myotubes, 96-well); settings: for Burkin Assay in Myotubes, value relative to DMSO: SU9516 analogs, 96-well, N=3-6
[3] = test system: α7 integrin (LacZ reporter in α7βgal+/− myoblasts); experiment: Myoblast α7+/LacZ integrin FDG assay (Burkin assay in myoblasts, 96-well); settings: 96-well; for Burkin Assay in Myoblasts, signal relative to DMSO: α7+/LacZ myoblasts; for Burkin Assay in Myoblasts, value relative to DMSO: SU9516 analogs, N=3-6
[4] = test system: β-galactosidase in CMV-LacZ C2C12 myoblasts; experiment: CMV-LacZ secondary screen in C2C12 myoblasts (β-Gal stabilizing assay); settings: for CMV-LACZ in Myoblasts (β-galactosidase activity relative to DMSO): CMV-LacZ C2C12 myoblasts; for CMV-LACZ in Myoblasts, value relative to DMSO: SU9516 analogs, C2C12 CMV-LacZ, N=2
Procedure, shortened: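 CMV-LacZ C2C12 line (clonal, FDG-screened); myoblasts/myotubes dosed 0.5–40 μM (0.5, 1, 5, 10, 20, 40 μM); n=2 per point; β-gal stabilization read-out.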

CCOC(=O)C1(Cc2cccc(Cl)c2)CCCN(C(=O)CCSC)C1 (stereo not drawn) [MLS001000299-01]
CMV-LACZ in Myotubes, signal relative to DMSO ([1]; 0.5 uM): 0.6411
CMV-LACZ in Myotubes, signal relative to DMSO ([1]; 1 uM): 1.3158
CMV-LACZ in Myotubes, signal relative to DMSO ([1]; 5 uM): 1.0658
CMV-LACZ in Myotubes, signal relative to DMSO ([1]; 10 uM): 0.9029
CMV-LACZ in Myotubes, signal relative to DMSO ([1]; 20 uM): 0.9544
CMV-LACZ in Myotubes, signal relative to DMSO ([1]; 40 uM): 1.0744
Burkin Assay in Myotubes, α7 integrin LacZ reporter signal relative to DMSO ([2]; 0.5 uM): 0.9225
Burkin Assay in Myotubes, α7 integrin LacZ reporter signal relative to DMSO ([2]; 1 uM): 1.006
Burkin Assay in Myotubes, α7 integrin LacZ reporter signal relative to DMSO ([2]; 5 uM): 0.8764
Burkin Assay in Myotubes, α7 integrin LacZ reporter signal relative to DMSO ([2]; 10 uM): 0.9163
Burkin Assay in Myotubes, α7 integrin LacZ reporter signal relative to DMSO ([2]; 20 uM): 0.793
Burkin Assay in Myotubes, α7 integrin LacZ reporter signal relative to DMSO ([2]; 40 uM): 0.5578
Burkin Assay in Myoblasts, signal relative to DMSO ([3]; 0.5 uM): 1.089
Burkin Assay in Myoblasts, signal relative to DMSO ([3]; 1 uM): 0.9953
Burkin Assay in Myoblasts, signal relative to DMSO ([3]; 5 uM): 0.9552
Burkin Assay in Myoblasts, signal relative to DMSO ([3]; 10 uM): 0.975
Burkin Assay in Myoblasts, signal relative to DMSO ([3]; 20 uM): 0.9397
Burkin Assay in Myoblasts, signal relative to DMSO ([3]; 40 uM): 0.7738
CMV-LACZ in Myoblasts (β-galactosidase activity relative to DMSO) ([4]; 0.5 uM): 1.4188
CMV-LACZ in Myoblasts (β-galactosidase activity relative to DMSO) ([4]; 1 uM): 1.2745
CMV-LACZ in Myoblasts (β-galactosidase activity relative to DMSO) ([4]; 5 uM): 0.9901
CMV-LACZ in Myoblasts (β-galactosidase activity relative to DMSO) ([4]; 10 uM): 0.8248
CMV-LACZ in Myoblasts (β-galactosidase activity relative to DMSO) ([4]; 20 uM): 1.1522
CMV-LACZ in Myoblasts (β-galactosidase activity relative to DMSO) ([4]; 40 uM): 1.0107

CCCN(C(=O)c1ccc(S(=O)(=O)N2CCCC2)cc1)C1CCS(=O)(=O)C1 (stereo not drawn) [MLS002161853-01]
CMV-LACZ in Myotubes, signal relative to DMSO ([1]; 0.5 uM): 1.0524
CMV-LACZ in Myotubes, signal relative to DMSO ([1]; 1 uM): 0.8352
CMV-LACZ in Myotubes, signal relative to DMSO ([1]; 5 uM): 1.1122
CMV-LACZ in Myotubes, signal relative to DMSO ([1]; 10 uM): 0.9103
CMV-LACZ in Myotubes, signal relative to DMSO ([1]; 20 uM): 1.2341
CMV-LACZ in Myotubes, signal relative to DMSO ([1]; 40 uM): 1.0647
Burkin Assay in Myotubes, α7 integrin LacZ reporter signal relative to DMSO ([2]; 0.5 uM): 0.8761
Burkin Assay in Myotubes, α7 integrin LacZ reporter signal relative to DMSO ([2]; 1 uM): 0.8092
Burkin Assay in Myotubes, α7 integrin LacZ reporter signal relative to DMSO ([2]; 5 uM): 0.9889
Burkin Assay in Myotubes, α7 integrin LacZ reporter signal relative to DMSO ([2]; 10 uM): 1.16
Burkin Assay in Myotubes, α7 integrin LacZ reporter signal relative to DMSO ([2]; 20 uM): 0.919
Burkin Assay in Myotubes, α7 integrin LacZ reporter signal relative to DMSO ([2]; 40 uM): 0.9353
Burkin Assay in Myoblasts, signal relative to DMSO ([3]; 0.5 uM): 0.8569
Burkin Assay in Myoblasts, signal relative to DMSO ([3]; 1 uM): 0.8278
Burkin Assay in Myoblasts, signal relative to DMSO ([3]; 5 uM): 0.9386
Burkin Assay in Myoblasts, signal relative to DMSO ([3]; 10 uM): 1.1978
Burkin Assay in Myoblasts, signal relative to DMSO ([3]; 20 uM): 1.073
Burkin Assay in Myoblasts, signal relative to DMSO ([3]; 40 uM): 0.9354
CMV-LACZ in Myoblasts (β-galactosidase activity relative to DMSO) ([4]; 0.5 uM): 1.0131
CMV-LACZ in Myoblasts (β-galactosidase activity relative to DMSO) ([4]; 1 uM): 0.8734
CMV-LACZ in Myoblasts (β-galactosidase activity relative to DMSO) ([4]; 5 uM): 0.8819
CMV-LACZ in Myoblasts (β-galactosidase activity relative to DMSO) ([4]; 10 uM): 0.9436
CMV-LACZ in Myoblasts (β-galactosidase activity relative to DMSO) ([4]; 20 uM): 1.0922
CMV-LACZ in Myoblasts (β-galactosidase activity relative to DMSO) ([4]; 40 uM): 0.9348

CCO/C(C)=C1\C(=O)Nc2ccccc21 [MLS000554109-01]
CMV-LACZ in Myotubes, value relative to DMSO ([1]; 0.5 uM): 1.2682
CMV-LACZ in Myotubes, value relative to DMSO ([1]; 1 uM): 0.9491
CMV-LACZ in Myotubes, value relative to DMSO ([1]; 5 uM): 1.1559
CMV-LACZ in Myotubes, value relative to DMSO ([1]; 10 uM): 1.1355
CMV-LACZ in Myotubes, value relative to DMSO ([1]; 20 uM): 0.9100
CMV-LACZ in Myotubes, value relative to DMSO ([1]; 40 uM): 0.9950
Burkin Assay in Myotubes, value relative to DMSO ([2]; 0.5 uM): 0.8839
Burkin Assay in Myotubes, value relative to DMSO ([2]; 1 uM): 1.054
Burkin Assay in Myotubes, value relative to DMSO ([2]; 5 uM): 0.9611
Burkin Assay in Myotubes, value relative to DMSO ([2]; 10 uM): 0.9874
Burkin Assay in Myotubes, value relative to DMSO ([2]; 20 uM): 0.8426
Burkin Assay in Myotubes, value relative to DMSO ([2]; 40 uM): 1.048
Burkin Assay in Myoblasts, value relative to DMSO ([3]; 0.5 uM): 0.9929
Burkin Assay in Myoblasts, value relative to DMSO ([3]; 1 uM): 1.049
Burkin Assay in Myoblasts, value relative to DMSO ([3]; 5 uM): 1.067
Burkin Assay in Myoblasts, value relative to DMSO ([3]; 10 uM): 1.095
Burkin Assay in Myoblasts, value relative to DMSO ([3]; 20 uM): 0.9611
Burkin Assay in Myoblasts, value relative to DMSO ([3]; 40 uM): 0.8937
CMV-LACZ in Myoblasts, value relative to DMSO ([4]; 0.5 uM): 1.1083
CMV-LACZ in Myoblasts, value relative to DMSO ([4]; 1 uM): 1.1863
CMV-LACZ in Myoblasts, value relative to DMSO ([4]; 5 uM): 0.9003
CMV-LACZ in Myoblasts, value relative to DMSO ([4]; 10 uM): 0.9457
CMV-LACZ in Myoblasts, value relative to DMSO ([4]; 20 uM): 0.9853
CMV-LACZ in Myoblasts, value relative to DMSO ([4]; 40 uM): 0.9650

O=c1[nH]c(CN2CCCCC2)nc2c1C1(CCCCC1)Cc1ccccc1-2 [MLS000028160-01]
CMV-LACZ in Myotubes, signal relative to DMSO ([1]; 0.5 uM): 1.0524
CMV-LACZ in Myotubes, signal relative to DMSO ([1]; 1 uM): 1.0362
CMV-LACZ in Myotubes, signal relative to DMSO ([1]; 5 uM): 1.0348
CMV-LACZ in Myotubes, signal relative to DMSO ([1]; 10 uM): 0.9249
CMV-LACZ in Myotubes, signal relative to DMSO ([1]; 20 uM): 1.0471
CMV-LACZ in Myotubes, signal relative to DMSO ([1]; 40 uM): 1.1976
Burkin Assay in Myotubes, α7 integrin LacZ reporter signal relative to DMSO ([2]; 0.5 uM): 1.085
Burkin Assay in Myotubes, α7 integrin LacZ reporter signal relative to DMSO ([2]; 1 uM): 1.102
Burkin Assay in Myotubes, α7 integrin LacZ reporter signal relative to DMSO ([2]; 5 uM): 0.9162
Burkin Assay in Myotubes, α7 integrin LacZ reporter signal relative to DMSO ([2]; 10 uM): 0.9598
Burkin Assay in Myotubes, α7 integrin LacZ reporter signal relative to DMSO ([2]; 20 uM): 0.9049
Burkin Assay in Myotubes, α7 integrin LacZ reporter signal relative to DMSO ([2]; 40 uM): 0.8112
Burkin Assay in Myoblasts, signal relative to DMSO ([3]; 0.5 uM): 1.037
Burkin Assay in Myoblasts, signal relative to DMSO ([3]; 1 uM): 0.9873
Burkin Assay in Myoblasts, signal relative to DMSO ([3]; 5 uM): 0.9805
Burkin Assay in Myoblasts, signal relative to DMSO ([3]; 10 uM): 0.8521
Burkin Assay in Myoblasts, signal relative to DMSO ([3]; 20 uM): 1.107
Burkin Assay in Myoblasts, signal relative to DMSO ([3]; 40 uM): 0.8535
CMV-LACZ in Myoblasts (β-galactosidase activity relative to DMSO) ([4]; 0.5 uM): 1.0663
CMV-LACZ in Myoblasts (β-galactosidase activity relative to DMSO) ([4]; 1 uM): 0.9029
CMV-LACZ in Myoblasts (β-galactosidase activity relative to DMSO) ([4]; 5 uM): 0.9378
CMV-LACZ in Myoblasts (β-galactosidase activity relative to DMSO) ([4]; 10 uM): 1.2759
CMV-LACZ in Myoblasts (β-galactosidase activity relative to DMSO) ([4]; 20 uM): 0.8967
CMV-LACZ in Myoblasts (β-galactosidase activity relative to DMSO) ([4]; 40 uM): 0.8600

Cc1cccc(Sc2nc(-c3ccccc3)ccc2C#N)c1 [MLS000325736-01]
CMV-LACZ in Myotubes, signal relative to DMSO ([1]; 0.5 uM): 0.9263
CMV-LACZ in Myotubes, signal relative to DMSO ([1]; 1 uM): 0.8968
CMV-LACZ in Myotubes, signal relative to DMSO ([1]; 5 uM): 0.9630
CMV-LACZ in Myotubes, signal relative to DMSO ([1]; 10 uM): 0.9324
CMV-LACZ in Myotubes, signal relative to DMSO ([1]; 20 uM): 0.8244
CMV-LACZ in Myotubes, signal relative to DMSO ([1]; 40 uM): 0.9889
Burkin Assay in Myotubes, α7 integrin LacZ reporter signal relative to DMSO ([2]; 0.5 uM): 0.9135
Burkin Assay in Myotubes, α7 integrin LacZ reporter signal relative to DMSO ([2]; 1 uM): 0.8017
Burkin Assay in Myotubes, α7 integrin LacZ reporter signal relative to DMSO ([2]; 5 uM): 1.027
Burkin Assay in Myotubes, α7 integrin LacZ reporter signal relative to DMSO ([2]; 10 uM): 1.168
Burkin Assay in Myotubes, α7 integrin LacZ reporter signal relative to DMSO ([2]; 20 uM): 0.6582
Burkin Assay in Myotubes, α7 integrin LacZ reporter signal relative to DMSO ([2]; 40 uM): 0.6972
Burkin Assay in Myoblasts, signal relative to DMSO ([3]; 0.5 uM): 0.7757
Burkin Assay in Myoblasts, signal relative to DMSO ([3]; 1 uM): 0.7875
Burkin Assay in Myoblasts, signal relative to DMSO ([3]; 5 uM): 1.423
Burkin Assay in Myoblasts, signal relative to DMSO ([3]; 10 uM): 1.17
Burkin Assay in Myoblasts, signal relative to DMSO ([3]; 20 uM): 0.912
Burkin Assay in Myoblasts, signal relative to DMSO ([3]; 40 uM): 0.8854
CMV-LACZ in Myoblasts (β-galactosidase activity relative to DMSO) ([4]; 0.5 uM): 0.7862
CMV-LACZ in Myoblasts (β-galactosidase activity relative to DMSO) ([4]; 1 uM): 0.9135
CMV-LACZ in Myoblasts (β-galactosidase activity relative to DMSO) ([4]; 5 uM): 0.9758
CMV-LACZ in Myoblasts (β-galactosidase activity relative to DMSO) ([4]; 10 uM): 1.0696
CMV-LACZ in Myoblasts (β-galactosidase activity relative to DMSO) ([4]; 20 uM): 1.0111
CMV-LACZ in Myoblasts (β-galactosidase activity relative to DMSO) ([4]; 40 uM): 1.0537
